According to publication PMC11247499, “2,8-Disubstituted-1,5-naphthyridines as Dual Inhibitors of Plasmodium falciparum Phosphatidylinositol-4-kinase and Hemozoin Formation with In Vivo Efficacy” (Journal of Medicinal Chemistry, 2024):
Converted amounts (≈) assume the structure as drawn. “And” between values parts separate entries of the source, which are not always exact repeats. Equal values may be shown once. Read-outs that look alike come from different tables or passages of the source.

Legend:
[1] = Solubility, miniaturized shake flask method
Dd2 = experiment: microbe, parasite or virus in culture; type: cell-based; details: Plasmodium falciparum, DD2, 72 h, read-out: Dd2 IC50 ± SD
β-hematin (βH) formation = experiment: NP-40 mediated cell-free β-hematin assay; details: read-out: β-hematin IC50; cell-free NP-40 detergent-mediated assay; n = 2
PvPI4K = PvPI4K (Plasmodium vivax, UniProt A5KB26); experiment: biochemical
Dd2_PI4K_CNV = experiment: microbe, parasite or virus in culture; type: cell-based; details: Plasmodium falciparum, 72 h, read-out: Dd2_PI4K_CNV IC50
[2] = test system: multidrug-resistant strain, K1; experiment: Antiplasmodial activity, parasite lactate dehydrogenase assay, K1; type: cell-based, Plasmodium falciparum; details: Plasmodium falciparum, K1, 72 h, parasite lactate dehydrogenase assay over 72 h; read-out: Pf IC50 ± SD K1
[3] = test system: Chinese Hamster Ovary (CHO) cell line; experiment: cells; type: cell-based; details: Cricetulus griseus, CHO; MTT assay over 48h; read-out: CHO IC50
[4] = test system: P. falciparum NF54 strain; experiment: Antiplasmodial activity, parasite lactate dehydrogenase assay, NF54; type: cell-based, Plasmodium falciparum; details: Plasmodium falciparum, NF54, 72 h, parasite lactate dehydrogenase assay over 72 h; read-out: Pf IC50 ± SD NF54
[5] = In vitro microsomal stability, mouse; type: in vitro ADME; details: mouse liver microsomes, pH 7.4, read-out: microsomal CLint, app mouse
HuMAP4K4 = HuMAP4K4 (Homo sapiens, UniProt O95819); experiment: Human kinase inhibition, HuMAP4K4; details: read-out: HuMAP4K4, IC50
Caco-2 permeability = type: in vitro ADME; details: human
HuMINK1 = HuMINK1 (Homo sapiens, UniProt Q8N4C8); experiment: Human kinase inhibition, HuMINK1; details: read-out: HuMINK1, IC50
[6] = Plasma protein binding, human; type: in vitro ADME; details: pooled human plasma, read-out: PPB fu, human
cytochrome P450 3A4 = cytochrome P450 3A4 (Homo sapiens, UniProt P08684); experiment: Cytochrome P450 inhibition, 3A4; type: in vitro ADME
[7] = In vitro microsomal stability, human; type: in vitro ADME; details: pooled human liver microsomes, pH 7.4, read-out: microsomal CLint, app human
LogD shake-flask = type: physicochemical; details: n-octanol/phosphate buffer (1:1), phosphate buffer (pH 7.4) / n-octanol
[8] = test system: P. falciparum PI4K conditional knockdown line; experiment: microbe, parasite or virus in culture; type: cell-based, Plasmodium falciparum; details: for IC50: Plasmodium falciparum; for ABS IC50 for PfPI4K cKD, N=1, fold shift: experiment N=1; for ABS IC50 for PfPI4K cKD, N=1, fold shift / ABS IC50 for PfPI4K cKD, N=2, fold shift / ABS IC50 for PfPI4K cKD, N=3, fold shift / ABS IC50 for PfPI4K cKD, mean fold shift (fold decrease in IC50 on knockdown): +aTc vs no aTc; for ABS IC50 for PfPI4K cKD, N=2, fold shift: experiment N=2; for ABS IC50 for PfPI4K cKD, N=3, fold shift: experiment N=3
[9] = Mouse pharmacokinetic studies; details: male, BalbC; for Vd at 24 h / half-life at 24 h / bioavailability at 24 h: in vivo; for Vd at 24 h / half-life at 24 h / in vivo mouse CLb: iv, 2 mg/kg; for bioavailability at 24 h: po
HuPI4Kβ = HuPI4Kβ (Homo sapiens, UniProt Q9UBF8); experiment: Human kinase inhibition, HuPI4Kβ; details: read-out: HuPI4Kβ, IC50
[10] = In vitro microsomal stability, rat; type: in vitro ADME; details: rat liver microsomes, pH 7.4, read-out: microsomal CLint, app rat
cytochrome P450 2C19 = cytochrome P450 2C19 (Homo sapiens, UniProt P33261); experiment: Cytochrome P450 inhibition, 2C19; type: in vitro ADME
HuPI3Kα = HuPI3Kα (Homo sapiens, UniProt P42336); experiment: Human kinase inhibition, HuPI3Kα; details: read-out: HuPI3Kα, IC50
cytochrome P450 2C9 = cytochrome P450 2C9 (Homo sapiens, UniProt P11712); experiment: Cytochrome P450 inhibition, 2C9; type: in vitro ADME
[11] = Plasma protein binding, mouse; type: in vitro ADME; details: read-out: PPB fu, mouse
P. falciparum = experiment: In vitro resistance selection under sustained drug pressure; type: cell-based, Plasmodium falciparum; details: sustained drug pressure at 3 × IC90 for 60 days in vitro (data not shown)
cytochrome P450 2D6 = cytochrome P450 2D6 (Homo sapiens, UniProt P10635); experiment: Cytochrome P450 inhibition, 2D6; type: in vitro ADME
Text: Table 10 In Vitro and In Vivo Pharmacokinetic Parameters ^a | column: 14

[12] = purified recombinant PvPI4K, 10 μM ATP, ADP-Glo, mean of N ≥ 2, read-out: PvPI4K IC50 ± SD
[13] = 72 h, read-out: ABS IC50 for PfPI4K cKD, N=1, +aTc, experiment N=1, +aTc (500 nM, control conditions), 72 hours
[14] = 72 h, read-out: ABS IC50 for PfPI4K cKD, N=1, no aTc, experiment N=1, no aTc (PI4K knockdown), 72 hours
[15] = 72 h, read-out: ABS IC50 for PfPI4K cKD, N=2, +aTc, experiment N=2, +aTc (500 nM, control conditions), 72 hours
[16] = 72 h, read-out: ABS IC50 for PfPI4K cKD, N=2, no aTc, experiment N=2, no aTc (PI4K knockdown), 72 hours
[17] = 72 h, read-out: ABS IC50 for PfPI4K cKD, N=3, +aTc, experiment N=3, +aTc (500 nM, control conditions), 72 hours
[18] = 72 h, read-out: ABS IC50 for PfPI4K cKD, N=3, no aTc, experiment N=3, no aTc (PI4K knockdown), 72 hours
[19] = read-out: ABS IC50 for PfPI4K cKD, Mean + SD, +aTc, mean of N=3, +aTc (control conditions)
[20] = read-out: ABS IC50 for PfPI4K cKD, Mean + SD, no aTc, mean of N=3, no aTc (PI4K knockdown)

Sequence of PvPI4K (A5KB26 entry or part of it): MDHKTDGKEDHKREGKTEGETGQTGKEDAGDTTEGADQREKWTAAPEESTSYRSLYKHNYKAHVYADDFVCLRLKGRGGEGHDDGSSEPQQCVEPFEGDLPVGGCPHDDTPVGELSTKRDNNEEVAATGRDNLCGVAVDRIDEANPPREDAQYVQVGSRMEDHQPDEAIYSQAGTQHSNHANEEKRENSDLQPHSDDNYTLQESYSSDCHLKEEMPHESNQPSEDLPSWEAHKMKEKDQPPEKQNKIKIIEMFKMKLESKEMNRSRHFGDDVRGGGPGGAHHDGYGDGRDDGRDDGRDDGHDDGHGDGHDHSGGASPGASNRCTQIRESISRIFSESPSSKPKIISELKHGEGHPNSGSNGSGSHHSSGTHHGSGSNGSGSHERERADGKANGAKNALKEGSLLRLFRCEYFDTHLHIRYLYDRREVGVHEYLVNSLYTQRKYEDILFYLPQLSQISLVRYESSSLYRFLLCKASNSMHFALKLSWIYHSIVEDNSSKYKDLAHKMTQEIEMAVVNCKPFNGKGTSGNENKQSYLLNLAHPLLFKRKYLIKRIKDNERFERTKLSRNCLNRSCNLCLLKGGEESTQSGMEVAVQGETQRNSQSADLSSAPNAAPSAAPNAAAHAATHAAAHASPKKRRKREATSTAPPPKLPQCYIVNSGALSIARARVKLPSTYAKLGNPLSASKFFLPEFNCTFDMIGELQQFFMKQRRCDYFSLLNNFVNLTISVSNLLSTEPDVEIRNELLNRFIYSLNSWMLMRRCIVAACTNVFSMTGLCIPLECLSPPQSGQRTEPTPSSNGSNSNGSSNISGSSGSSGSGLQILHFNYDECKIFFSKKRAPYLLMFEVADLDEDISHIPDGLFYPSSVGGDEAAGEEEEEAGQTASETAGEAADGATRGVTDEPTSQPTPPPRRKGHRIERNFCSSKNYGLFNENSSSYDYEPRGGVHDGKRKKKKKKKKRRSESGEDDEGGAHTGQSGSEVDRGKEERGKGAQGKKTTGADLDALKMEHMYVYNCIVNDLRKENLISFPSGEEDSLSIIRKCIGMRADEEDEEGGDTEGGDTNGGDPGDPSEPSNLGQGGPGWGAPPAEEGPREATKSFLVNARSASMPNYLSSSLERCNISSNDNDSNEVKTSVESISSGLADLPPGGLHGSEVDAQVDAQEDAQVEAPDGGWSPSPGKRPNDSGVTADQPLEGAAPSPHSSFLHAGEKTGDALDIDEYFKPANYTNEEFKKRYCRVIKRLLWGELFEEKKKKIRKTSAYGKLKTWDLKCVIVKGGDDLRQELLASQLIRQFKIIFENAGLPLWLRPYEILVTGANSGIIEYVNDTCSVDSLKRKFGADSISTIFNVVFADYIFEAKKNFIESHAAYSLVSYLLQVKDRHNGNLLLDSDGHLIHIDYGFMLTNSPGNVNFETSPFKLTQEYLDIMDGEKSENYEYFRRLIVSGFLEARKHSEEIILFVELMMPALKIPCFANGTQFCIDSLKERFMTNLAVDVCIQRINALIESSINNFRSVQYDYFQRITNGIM
Sequence of cytochrome P450 2C9 (P11712 whole entry): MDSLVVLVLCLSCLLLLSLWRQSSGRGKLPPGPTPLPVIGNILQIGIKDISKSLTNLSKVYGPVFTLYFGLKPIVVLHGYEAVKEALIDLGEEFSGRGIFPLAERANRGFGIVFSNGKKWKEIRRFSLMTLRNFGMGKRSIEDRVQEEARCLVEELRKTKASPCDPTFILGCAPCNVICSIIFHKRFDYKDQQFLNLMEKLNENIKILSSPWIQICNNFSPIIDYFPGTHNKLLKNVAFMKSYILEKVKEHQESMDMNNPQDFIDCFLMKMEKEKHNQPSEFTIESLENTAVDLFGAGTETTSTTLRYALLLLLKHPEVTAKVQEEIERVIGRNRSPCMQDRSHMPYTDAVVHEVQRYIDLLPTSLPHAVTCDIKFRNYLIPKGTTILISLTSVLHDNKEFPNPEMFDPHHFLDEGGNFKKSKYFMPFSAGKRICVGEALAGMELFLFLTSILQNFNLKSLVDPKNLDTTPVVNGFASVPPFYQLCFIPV
Sequence of HuMINK1 (Q8N4C8 whole entry): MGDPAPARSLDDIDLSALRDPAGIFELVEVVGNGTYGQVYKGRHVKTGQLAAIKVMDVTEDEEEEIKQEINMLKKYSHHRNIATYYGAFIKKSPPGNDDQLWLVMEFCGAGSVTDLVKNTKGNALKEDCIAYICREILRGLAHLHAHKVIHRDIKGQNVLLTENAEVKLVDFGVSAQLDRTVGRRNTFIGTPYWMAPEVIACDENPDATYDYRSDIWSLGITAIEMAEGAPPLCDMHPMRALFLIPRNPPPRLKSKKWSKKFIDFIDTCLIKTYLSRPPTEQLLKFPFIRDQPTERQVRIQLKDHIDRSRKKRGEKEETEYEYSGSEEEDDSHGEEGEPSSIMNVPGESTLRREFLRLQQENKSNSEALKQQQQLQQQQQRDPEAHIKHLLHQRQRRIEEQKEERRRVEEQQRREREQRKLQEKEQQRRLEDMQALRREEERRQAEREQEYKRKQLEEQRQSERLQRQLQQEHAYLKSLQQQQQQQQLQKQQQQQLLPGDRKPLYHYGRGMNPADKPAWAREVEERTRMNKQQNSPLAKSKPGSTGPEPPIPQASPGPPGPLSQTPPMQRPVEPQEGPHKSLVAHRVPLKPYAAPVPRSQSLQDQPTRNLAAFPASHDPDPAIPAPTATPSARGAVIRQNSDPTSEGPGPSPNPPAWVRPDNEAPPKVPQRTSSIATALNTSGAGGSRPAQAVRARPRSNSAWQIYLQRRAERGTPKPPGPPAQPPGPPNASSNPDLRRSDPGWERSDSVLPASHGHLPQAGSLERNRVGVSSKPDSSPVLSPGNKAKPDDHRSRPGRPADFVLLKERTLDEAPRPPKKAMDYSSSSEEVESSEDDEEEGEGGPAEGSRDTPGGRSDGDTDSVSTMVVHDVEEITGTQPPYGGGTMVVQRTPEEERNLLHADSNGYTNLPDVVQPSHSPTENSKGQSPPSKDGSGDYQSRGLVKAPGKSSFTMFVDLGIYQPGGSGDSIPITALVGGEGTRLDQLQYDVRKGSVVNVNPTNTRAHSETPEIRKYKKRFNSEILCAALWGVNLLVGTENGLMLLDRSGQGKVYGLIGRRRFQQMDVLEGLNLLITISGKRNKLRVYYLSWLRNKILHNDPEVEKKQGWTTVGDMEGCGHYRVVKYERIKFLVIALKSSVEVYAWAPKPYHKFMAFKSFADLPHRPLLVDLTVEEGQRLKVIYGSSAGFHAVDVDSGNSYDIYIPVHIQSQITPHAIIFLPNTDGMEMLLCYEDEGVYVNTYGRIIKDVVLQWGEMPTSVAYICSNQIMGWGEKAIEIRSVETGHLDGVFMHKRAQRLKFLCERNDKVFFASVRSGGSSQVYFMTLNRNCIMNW
Sequence of HuPI4Kβ (Q9UBF8 whole entry): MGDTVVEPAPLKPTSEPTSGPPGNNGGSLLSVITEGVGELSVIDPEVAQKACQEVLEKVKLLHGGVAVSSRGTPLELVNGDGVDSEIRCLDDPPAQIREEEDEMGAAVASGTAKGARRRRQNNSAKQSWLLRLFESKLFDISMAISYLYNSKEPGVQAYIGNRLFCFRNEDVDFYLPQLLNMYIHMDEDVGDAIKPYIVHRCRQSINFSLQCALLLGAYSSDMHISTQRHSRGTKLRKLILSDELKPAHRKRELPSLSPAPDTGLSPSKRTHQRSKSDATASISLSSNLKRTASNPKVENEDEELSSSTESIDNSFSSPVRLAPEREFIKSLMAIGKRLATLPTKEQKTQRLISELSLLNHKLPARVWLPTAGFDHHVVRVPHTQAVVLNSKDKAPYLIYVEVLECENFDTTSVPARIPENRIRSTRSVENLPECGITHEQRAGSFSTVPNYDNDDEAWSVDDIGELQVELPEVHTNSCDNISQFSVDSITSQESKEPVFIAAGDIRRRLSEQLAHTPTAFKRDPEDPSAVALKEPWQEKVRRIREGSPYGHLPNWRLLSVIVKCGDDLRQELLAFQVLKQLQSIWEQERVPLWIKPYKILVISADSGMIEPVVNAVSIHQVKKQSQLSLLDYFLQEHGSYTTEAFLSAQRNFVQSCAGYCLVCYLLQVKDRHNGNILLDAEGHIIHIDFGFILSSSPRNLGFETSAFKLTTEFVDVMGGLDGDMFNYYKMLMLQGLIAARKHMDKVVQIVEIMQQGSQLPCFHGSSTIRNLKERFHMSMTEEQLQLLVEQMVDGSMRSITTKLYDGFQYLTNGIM
Sequence of cytochrome P450 2C19 (P33261 whole entry): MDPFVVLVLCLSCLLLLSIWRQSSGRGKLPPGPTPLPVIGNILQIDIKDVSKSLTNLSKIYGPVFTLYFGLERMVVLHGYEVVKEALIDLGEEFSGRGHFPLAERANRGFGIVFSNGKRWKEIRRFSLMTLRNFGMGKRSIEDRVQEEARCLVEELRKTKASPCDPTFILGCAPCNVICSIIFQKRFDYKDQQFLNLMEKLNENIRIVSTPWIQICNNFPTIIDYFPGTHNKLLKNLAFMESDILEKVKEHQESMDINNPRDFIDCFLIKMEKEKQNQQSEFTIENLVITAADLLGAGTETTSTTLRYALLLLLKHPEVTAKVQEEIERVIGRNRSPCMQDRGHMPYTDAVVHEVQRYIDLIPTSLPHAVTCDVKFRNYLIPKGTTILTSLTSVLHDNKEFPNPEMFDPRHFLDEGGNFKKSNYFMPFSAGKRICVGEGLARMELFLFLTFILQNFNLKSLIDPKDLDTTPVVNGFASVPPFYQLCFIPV

Compound	solubility at 20 h ([1]; aqueous solution)	IC50 (Dd2)	IC50 (β-hematin (βH) formation)	IC50 (PvPI4K; [12])	IC50 (Dd2_PI4K_CNV)	IC50 [2]	IC50 [3]	IC50 [4]	solubility at 20 h ([1]; PBS, pH 6.5)	CLint scaled at 1 µM [5]	IC50 (HuMAP4K4)	IC50 (HuMINK1)	IC50 (cytochrome P450 3A4)	CLint scaled at 1 µM [7]	IC50 [8, 13]	IC50 [8, 14]	IC50 [8, 15]	IC50 [8, 16]	IC50 [8, 17]	IC50 [8, 18]	further results
O[C@H]1CNCC[C@@H]1Nc1ccnc2ccc(-c3ccc(C(F)(F)F)nc3)nc12 (racemic) [Compound 28, rac-trans-4-[[6-[6-(Trifluoromethyl)pyridin-3-yl]-1,5-naphthyridin-4-yl]amino]piperidin-3-ol]	200 µM (≈ 77.9 µg/mL)	212 ± 127 nM	95000 ± 16000 nM	967 ± 163 nM	182 ± 44 nM	624 ± 76 nM	> 50000 nM	168 ± 55 nM	–	–	–	–	–	–	–	–	–	–	–	–	–
FC(F)(F)c1ccc(-c2ccc3nccc(N[C@@H]4CCNC4)c3n2)cn1 [Compound 16, N-[(3R)-Pyrrolidin-3-yl]-6-[6-(trifluoromethyl)pyridin-3-yl]-1,5-naphthyridin-4-amine]	200 µM (≈ 71.9 µg/mL)	–	32000 nM and < 60000 nM	66 ± 21 nM	–	–	> 50000 nM	86 ± 16 nM	195 µM (≈ 70.1 µg/mL)	< 467 mL/min/kg	> 10000 nM	> 10000 nM	> 20000 nM	< 13 mL/min/kg	71 nM	72 nM	118 nM	118 nM	63 nM	72 nM	efflux ratio (Caco-2 permeability): 13; Papp A→B (Caco-2 permeability; A > B): 2.6 ×10⁻⁶ cm/s; fraction unbound at 5 h, 5 µM [6]: 0.18; logD at 3 h (LogD shake-flask): 0.96; IC50 [8, 19]: 84 ± 30 nM; IC50 [8, 20]: 88 ± 27 nM; ABS IC50 for PfPI4K cKD, N=1, fold shift [8]: 0.98 fold; ABS IC50 for PfPI4K cKD, N=2, fold shift [8]: 1.00 fold; ABS IC50 for PfPI4K cKD, N=3, fold shift [8]: 0.88 fold; ABS IC50 for PfPI4K cKD, mean fold shift (fold decrease in IC50 on knockdown) [8]: 0.95 fold; in vivo mouse CLu [9]: 76 mL/min/kg; Vd at 24 h [9]: 3.1 L/kg; half-life at 24 h [9]: 2.7 h; bioavailability at 24 h [9]: 96%; in vivo mouse CLb [9]: 13.70 mL/min/kg; IC50 (HuPI4Kβ): > 10000 nM; CLint scaled at 1 µM [10]: < 21 mL/min/kg; IC50 (cytochrome P450 2C19): > 20000 nM; IC50 (HuPI3Kα): 8900 nM; IC50 (cytochrome P450 2C9): > 20000 nM
N[C@H]1CCN(c2ccnc3ccc(-c4ccc(C(F)(F)F)nc4)nc23)C1 [Compound 14, (3S)-1-[6-[6-(Trifluoromethyl)pyridin-3-yl]-1,5-naphthyridin-4-yl]pyrrolidin-3-amine]	200 µM (≈ 71.9 µg/mL)	46 ± 20 nM	33000 nM and < 60000 nM	1210 ± 220 nM	41 ± 10 nM	87 ± 30 nM	12000 nM	31 ± 3 nM	200 µM (≈ 71.9 µg/mL)	< 46 mL/min/kg	> 10000 nM	> 10000 nM	> 20000 nM	< 13 mL/min/kg	23 nM	25 nM	37 nM	38 nM	21 nM	20 nM	fraction unbound at 5 h, 5 µM [11]: 0.08; Attempts to raise mutants (P. falciparum): not successful; IC50 (cytochrome P450 2D6): > 20000 nM; IC50 [8, 19]: 27 ± 9 nM; IC50 [8, 20]: 28 ± 9 nM; ABS IC50 for PfPI4K cKD, N=1, fold shift [8]: 0.90 fold; ABS IC50 for PfPI4K cKD, N=2, fold shift [8]: 0.98 fold; ABS IC50 for PfPI4K cKD, N=3, fold shift [8]: 1.04 fold; ABS IC50 for PfPI4K cKD, mean fold shift (fold decrease in IC50 on knockdown) [8]: 0.97 fold; in vivo mouse CLu [9]: 135 mL/min/kg; Vd at 24 h [9]: 4.4 L/kg; half-life at 24 h [9]: 6.3 h; bioavailability at 24 h [9]: 27%; in vivo mouse CLb [9]: 10.80 mL/min/kg; IC50 (HuPI4Kβ): > 10000 nM; CLint scaled at 1 µM [10]: < 21 mL/min/kg; IC50 (cytochrome P450 2C19): 18000 nM; IC50 (HuPI3Kα): 5200 nM; IC50 (cytochrome P450 2C9): > 20000 nM
FC(F)CN1CCC(Nc2ccnc3ccc(-c4ccc(C(F)(F)F)nc4)nc23)CC1 [Compound 23, N-[1-(2,2-Difluoroethyl)piperidin-4-yl]-6-[6-(trifluoromethyl)pyridin-3-yl]-1,5-naphthyridin-4-amine]	–	–	30000 nM and < 60000 nM	–	–	–	–	880 ± 34 nM	–	–	–	–	–	–	–	–	–	–	–	–	solubility (physchem): 20 µM (≈ 8.75 µg/mL); IC50 (PvPI4K): 53 ± 28 nM
